Data taken from PubChem BioAssay AID2060884 (Molecular Pharmacology Branch, DTP, NCI, 2025).

System: NCI-H929 complex spheroids, viability % test/control
Assay: Anticancer human tumor NCI-H929 cell line growth inhibition [RAS];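 also: compound exposure lasted seven days before viability was read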;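 as to viability, T/C: 100% = DMSO vehicle control viability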
Conditions: for IC50: curve of first compound; for viability, T/C: stronger effect = lower value
Outline: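 Tumour cells grown as complex spheroids with HUVEC endothelial cells and mesenchymal stem cells, treated with RAS pathway inhibitor combinations. Each agent spans half-log steps from near clinical Cmax, or 10 microM where Cmax is unknown.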

[1] = second compound 0.0316 µM, first compound 0.0316 µM
[2] = second compound 0.0316 µM, first compound 0.1 µM
[3] = second compound 0.0316 µM, first compound 0.316 µM
[4] = second compound 0.0316 µM, first compound 1 µM
[5] = second compound 0.0316 µM, first compound 3.16 µM
[6] = second compound 0.0316 µM, first compound 10 µM
[7] = second compound 0.1 µM, first compound 0.0316 µM
[8] = second compound 0.1 µM, first compound 0.1 µM
[9] = second compound 0.1 µM, first compound 0.316 µM
[10] = second compound 0.1 µM, first compound 1 µM
[11] = second compound 0.1 µM, first compound 3.16 µM
[12] = second compound 0.1 µM, first compound 10 µM
[13] = second compound 0.316 µM, first compound 0.0316 µM
[14] = second compound 0.316 µM, first compound 0.1 µM
[15] = second compound 0.316 µM, first compound 0.316 µM
[16] = second compound 0.316 µM, first compound 1 µM
[17] = second compound 0.316 µM, first compound 3.16 µM
[18] = second compound 0.316 µM, first compound 10 µM
[19] = second compound 1 µM, first compound 0.0316 µM
[20] = second compound 1 µM, first compound 0.1 µM
[21] = second compound 1 µM, first compound 0.316 µM
[22] = second compound 1 µM, first compound 1 µM
[23] = second compound 1 µM, first compound 3.16 µM
[24] = second compound 1 µM, first compound 10 µM
[25] = second compound 3.16 µM, first compound 0.0316 µM
[26] = second compound 3.16 µM, first compound 0.1 µM
[27] = second compound 3.16 µM, first compound 0.316 µM
[28] = second compound 3.16 µM, first compound 1 µM
[29] = second compound 3.16 µM, first compound 3.16 µM
[30] = second compound 3.16 µM, first compound 10 µM
[31] = second compound 10 µM, first compound 0.0316 µM
[32] = second compound 10 µM, first compound 0.1 µM
[33] = second compound 10 µM, first compound 0.316 µM
[34] = second compound 10 µM, first compound 1 µM
[35] = second compound 10 µM, first compound 3.16 µM
[36] = second compound 10 µM, first compound 10 µM

## CCC(CC)c1cc(NC2CCC(N)C2)n2nccc2n1 (stereo unspecified) + C#Cc1c(F)ccc2cc(O)cc(-c3ncc4c(N5CC6CCC(C5)N6)nc(OCC56CCCN5CC(F)C6)nc4c3F)c12
Second compound 0.0316 µM
  IC50: 1.79 µM
Second compound 0.1 µM
  IC50: 1.8 µM
Second compound 0.316 µM
  IC50: 1.79 µM
Second compound 1 µM
  IC50: 1.78 µM
Second compound 3.16 µM
  IC50: 1.79 µM
Second compound 10 µM
  IC50: 1.82 µM
[1]
  viability, T/C: 95.1%
[2]
  viability, T/C: 95.2%
[3]
  viability, T/C: 101%
[4]
  viability, T/C: 109%
[5]
  viability, T/C: 1.07%
[6]
  viability, T/C: 0.31%
[7]
  viability, T/C: 97.2%
[8]
  viability, T/C: 97.7%
[9]
  viability, T/C: 99.7%
[10]
  viability, T/C: 110%
[11]
  viability, T/C: 1.11%
[12]
  viability, T/C: 0.27%
[13]
  viability, T/C: 95.4%
[14]
  viability, T/C: 98.1%
[15]
  viability, T/C: 97.6%
[16]
  viability, T/C: 113%
[17]
  viability, T/C: 0.58%
[18]
  viability, T/C: 0.23%
[19]
  viability, T/C: 93.8%
[20]
  viability, T/C: 95.7%
[21]
  viability, T/C: 99.7%
[22]
  viability, T/C: 111%
[23]
  viability, T/C: 0.22%
[24]
  viability, T/C: 0.66%
[25]
  viability, T/C: 94.1%
[26]
  viability, T/C: 98%
[27]
  viability, T/C: 96.4%
[28]
  viability, T/C: 113%
[29]
  viability, T/C: 1.09%
[30]
  viability, T/C: 0.81%
[31]
  viability, T/C: 102%
[32]
  viability, T/C: 101%
[33]
  viability, T/C: 99.1%
[34]
  viability, T/C: 111%
[35]
  viability, T/C: 0.7%
[36]
  viability, T/C: 0.12%

## Cc1nc(N2CCC3(CC2)COC(C)C3N)c(CO)nc1Sc1ccnc(N)c1Cl (stereo unspecified) + C#Cc1c(F)ccc2cc(O)cc(-c3ncc4c(N5CC6CCC(C5)N6)nc(OCC56CCCN5CC(F)C6)nc4c3F)c12
Second compound 0.0316 µM
  IC50: > 10 µM
Second compound 0.1 µM
  IC50: > 10 µM
Second compound 0.316 µM
  IC50: > 10 µM
Second compound 1 µM
  IC50: > 10 µM
Second compound 3.16 µM
  IC50: > 10 µM
Second compound 10 µM
  IC50: > 10 µM
[1]
  viability, T/C: 101%
[2]
  viability, T/C: 95.1%
[3]
  viability, T/C: 98%
[4]
  viability, T/C: 98.7%
[5]
  viability, T/C: 98.4%
[6]
  viability, T/C: 99.5%
[7]
  viability, T/C: 97.3%
[8]
  viability, T/C: 97.6%
[9]
  viability, T/C: 95.3%
[10]
  viability, T/C: 99%
[11]
  viability, T/C: 99%
[12]
  viability, T/C: 107%
[13]
  viability, T/C: 96%
[14]
  viability, T/C: 97.3%
[15]
  viability, T/C: 99%
[16]
  viability, T/C: 101%
[17]
  viability, T/C: 101%
[18]
  viability, T/C: 102%
[19]
  viability, T/C: 93.4%
[20]
  viability, T/C: 102%
[21]
  viability, T/C: 102%
[22]
  viability, T/C: 100%
[23]
  viability, T/C: 103%
[24]
  viability, T/C: 103%
[25]
  viability, T/C: 103%
[26]
  viability, T/C: 99.8%
[27]
  viability, T/C: 99.5%
[28]
  viability, T/C: 101%
[29]
  viability, T/C: 102%
[30]
  viability, T/C: 104%
[31]
  viability, T/C: 99.9%
[32]
  viability, T/C: 104%
[33]
  viability, T/C: 106%
[34]
  viability, T/C: 103%
[35]
  viability, T/C: 103%
[36]
  viability, T/C: 85.6%

## NC1c2ccccc2OC12CCN(c1cnc3c(N4CCCc5ncccc54)n[nH]c3n1)CC2 (stereo unspecified) + C#Cc1c(F)ccc2cc(O)cc(-c3ncc4c(N5CC6CCC(C5)N6)nc(OCC56CCCN5CC(F)C6)nc4c3F)c12
Second compound 0.0316 µM
  IC50: > 10 µM
Second compound 0.1 µM
  IC50: > 10 µM
Second compound 0.316 µM
  IC50: > 10 µM
Second compound 1 µM
  IC50: > 10 µM
Second compound 3.16 µM
  IC50: > 10 µM
Second compound 10 µM
  IC50: > 10 µM
[1]
  viability, T/C: 100%
[2]
  viability, T/C: 91.8%
[3]
  viability, T/C: 104%
[4]
  viability, T/C: 100%
[5]
  viability, T/C: 104%
[6]
  viability, T/C: 70.2%
[7]
  viability, T/C: 95.9%
[8]
  viability, T/C: 98%
[9]
  viability, T/C: 101%
[10]
  viability, T/C: 101%
[11]
  viability, T/C: 105%
[12]
  viability, T/C: 64.8%
[13]
  viability, T/C: 99.2%
[14]
  viability, T/C: 97.4%
[15]
  viability, T/C: 105%
[16]
  viability, T/C: 99.8%
[17]
  viability, T/C: 104%
[18]
  viability, T/C: 67.8%
[19]
  viability, T/C: 98.3%
[20]
  viability, T/C: 96.5%
[21]
  viability, T/C: 106%
[22]
  viability, T/C: 106%
[23]
  viability, T/C: 99.7%
[24]
  viability, T/C: 67.2%
[25]
  viability, T/C: 96.3%
[26]
  viability, T/C: 98.7%
[27]
  viability, T/C: 99%
[28]
  viability, T/C: 101%
[29]
  viability, T/C: 103%
[30]
  viability, T/C: 59.5%
[31]
  viability, T/C: 95.9%
[32]
  viability, T/C: 94.7%
[33]
  viability, T/C: 98.6%
[34]
  viability, T/C: 97.3%
[35]
  viability, T/C: 82.1%
[36]
  viability, T/C: 53.6%
